Like-named read-outs stand apart in the source and are kept apart here.
Molecular target: T1, Aβ oligomers (Homo sapiens, UniProt P05067)
T1 construct: Ser^26 depsipeptide iso-Aβ (1–42) was used; made in house; host or cells: chemical peptide synthesis (no expression host)
Experiment: Isothermal titration calorimetry (ITC) binding to Aβ oligomers
Conditions: PBS pH 7.4, 285 K, Aβ 100 µM in cell, ligand 250 µM in syringe, two independent site model
Experimental: The binding affinities of 2b–2i to Aβ oligomers were tested in ITC experiments.
In this work, Ser^26 depsipeptide iso-Aβ (1–42) was used, which was synthesized and purified as described previously. The lyophilized iso-Aβ (1–42) was dissolved in MilliQ water to a concentration of 1 mg mL^−1, sonicated for 3 min and the pH was set to 7.0 to initiate an O to N acyl migration, whereby the native sequence can be readily formed. The sample was incubated at room temperature for 10 min. Then the pH was set to 11 and the sample was kept at room temperature for additional 2 h. After the incubation, the Aβ stock solution was aliquoted and stored at −20 °C until use. To obtain Aβ oligomers, the 1 mg mL^−1 aliquot was diluted to a final concentration of 50 μM with 26.67 mM PBS and the pH was set to 7.4 with 1 M HCl. The sample was incubated at 37 °C for 3 h.
Isothermal calorimetric titrations were performed with a Microcal VP-ITC microcalorimeter in pH 7.4 PBS buffer solution. In individual titrations, 10 µL portions of the ligand containing solution were repeatedly injected from the computer-controlled 300-µL microsyringe at intervals of 300 s into the Aβ oligomer solution prepared in the same buffer as the ligand. All measurements were carried out at 285 K. The Aβ concentration in the cell was 100 µM and the total ligand concentration was 250 µM in the syringe and the titration was stopped when the precipitation of the Aβ aggregates became excessive. Control experiments were performed by injecting the ligand into a cell containing buffer with no target, and the heats of dilution were subtracted from those measured in the presence of Aβ. The experimental data were fitted to the two independent site binding models by using a nonlinear least-squares procedure, with ΔHb, ΔHb’, Kd, Kd’ ([…]), n and n’ (number of binding sites for monomer), as adjustable parameters.

[1] = KD, first binding stage, Table 2
[2] = KD, second binding stage, Table 2

T1 sequence (P05067 672-713 limits assumed): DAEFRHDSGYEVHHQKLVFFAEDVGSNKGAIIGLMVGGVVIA

Compound	Kd [1] [nM]	Kd [2] [nM]	other results
CC1(C)[C@H]2C[C@H](NC(=O)C[C@H](CCCNC(=N)N)NC(=O)[C@H]3CCCC[C@@H]3N)[C@@H](C(=O)N[C@H]3CCCC[C@@H]3C(=O)N[C@@H](CC(=O)O)CC(=O)N[C@H]3CCCC[C@@H]3C(=O)NCC(=O)NCC(=O)N[C@@H](CSC3CC(=O)N(CCC(=O)NCCCC[C@H](NC(=O)CCN4C(=O)CC(SC[C@H](NC(=O)CNC(=O)CNC(=O)[C@H]5CCCC[C@@H]5NC(=O)C[C@H](CC(=O)O)NC(=O)[C@H]5CCCC[C@@H]5NC(=O)[C@@H]5[C@@H](NC(=O)C[C@H](CCCNC(=N)N)NC(=O)[C@H]6CCCC[C@@H]6N)C[C@H]6C[C@@H]5C6(C)C)C(N)=O)C4=O)C(=O)NCCCC[C@H](NC(=O)[C@H](CCCCNC(=O)CCN4C(=O)CC(SC[C@H](NC(=O)CNC(=O)CNC(=O)[C@H]5CCCC[C@@H]5NC(=O)C[C@H](CC(=O)O)NC(=O)[C@H]5CCCC[C@@H]5NC(=O)[C@@H]5[C@@H](NC(=O)C[C@H](CCCNC(=N)N)NC(=O)[C@H]6CCCC[C@@H]6N)C[C@H]6C[C@@H]5C6(C)C)C(N)=O)C4=O)NC(=O)CCN4C(=O)CC(SC[C@H](NC(=O)CNC(=O)CNC(=O)[C@H]5CCCC[C@@H]5NC(=O)C[C@H](CC(=O)O)NC(=O)[C@H]5CCCC[C@@H]5NC(=O)[C@@H]5[C@@H](NC(=O)C[C@H](CCCNC(=N)N)NC(=O)[C@H]6CCCC[C@@H]6N)C[C@H]6C[C@@H]5C6(C)C)C(N)=O)C4=O)C(=O)N[C@@H](CCCCNC(=O)CCCC[C@@H]4SC[C@@H]5NC(=O)N[C@@H]54)C(N)=O)C3=O)C(N)=O)[C@@H]1C2 (stereo partly shown) [Compound 2g]	–	–	Kd (KD ITC, first binding stage, Table 1): 34.1 ± 10 nM; Kd (KD ITC, second binding stage, Table 1): 652 ± 158 nM
N=C(N)NCCC[C@@H](CC(=O)N[C@H]1CCCC[C@@H]1C(=O)N[C@H]1CCCC[C@@H]1C(=O)N[C@@H](CC(=O)O)CC(=O)N[C@H]1CCCC[C@@H]1C(=O)NCC(=O)NCC(=O)N[C@@H](CSC1CC(=O)N(CCC(=O)NCCCCC(=O)NCCN(CCNC(=O)CCCCNC(=O)CCN2C(=O)CC(SC[C@H](NC(=O)CNC(=O)CNC(=O)[C@H]3CCCC[C@@H]3NC(=O)C[C@H](CC(=O)O)NC(=O)[C@H]3CCCC[C@@H]3NC(=O)[C@H]3CCCC[C@@H]3NC(=O)C[C@H](CCCNC(=N)N)NC(=O)[C@H]3CCCC[C@@H]3N)C(N)=O)C2=O)CCNC(=O)CCCCNC(=O)CCN2C(=O)CC(SC[C@H](NC(=O)CNC(=O)CNC(=O)[C@H]3CCCC[C@@H]3NC(=O)C[C@H](CC(=O)O)NC(=O)[C@H]3CCCC[C@@H]3NC(=O)[C@H]3CCCC[C@@H]3NC(=O)C[C@H](CCCNC(=N)N)NC(=O)[C@H]3CCCC[C@@H]3N)C(N)=O)C2=O)C1=O)C(N)=O)NC(=O)[C@H]1CCCC[C@@H]1N (stereo partly shown) [Compound 4]	–	–	Kd (Table 2, first binding stage, read-out: KD, first binding stage): 18.5 ± 13.9 nM; Kd (Table 2, second binding stage, read-out: KD, second binding stage): 155 ± 131 nM
N=C(N)NCCC[C@@H](CC(=O)N[C@H]1CCCC[C@@H]1C(=O)N[C@H]1CCCC[C@@H]1C(=O)N[C@@H](CC(=O)O)CC(=O)N[C@H]1CCCC[C@@H]1C(=O)NCC(=O)NCC(=O)N[C@@H](CSC1CC(=O)N(CCC(=O)NCCNC(=O)CCN(CCC(=O)NCCNC(=O)CCN2C(=O)CC(SC[C@H](NC(=O)CNC(=O)CNC(=O)[C@H]3CCCC[C@@H]3NC(=O)C[C@H](CC(=O)O)NC(=O)[C@H]3CCCC[C@@H]3NC(=O)[C@H]3CCCC[C@@H]3NC(=O)C[C@H](CCCNC(=N)N)NC(=O)[C@H]3CCCC[C@@H]3N)C(N)=O)C2=O)CCN(CCC(=O)NCCNC(=O)CCN2C(=O)CC(SC[C@H](NC(=O)CNC(=O)CNC(=O)[C@H]3CCCC[C@@H]3NC(=O)C[C@H](CC(=O)O)NC(=O)[C@H]3CCCC[C@@H]3NC(=O)[C@H]3CCCC[C@@H]3NC(=O)C[C@H](CCCNC(=N)N)NC(=O)[C@H]3CCCC[C@@H]3N)C(N)=O)C2=O)CCC(=O)NCCNC(=O)CCN2C(=O)CC(SC[C@H](NC(=O)CNC(=O)CNC(=O)[C@H]3CCCC[C@@H]3NC(=O)C[C@H](CC(=O)O)NC(=O)[C@H]3CCCC[C@@H]3NC(=O)[C@H]3CCCC[C@@H]3NC(=O)C[C@H](CCCNC(=N)N)NC(=O)[C@H]3CCCC[C@@H]3N)C(N)=O)C2=O)C1=O)C(N)=O)NC(=O)[C@H]1CCCC[C@@H]1N (stereo partly shown) [Compound 5]	6.9 ± 1.4	281 ± 38.7	–
N=C(N)NCCC[C@@H](CC(=O)N[C@H]1CCCC[C@@H]1C(=O)N[C@H]1CCCC[C@@H]1C(=O)N[C@@H](CC(=O)O)CC(=O)N[C@H]1CCCC[C@@H]1C(=O)NCC(=O)NCC(=O)N[C@@H](CSC1CC(=O)N(CCC(=O)NCCNC(=O)CCN(CCNC(=O)CCN(CCC(=O)NCCN(CCC(=O)NCCNC(=O)CCN2C(=O)CC(SC[C@H](NC(=O)CNC(=O)CNC(=O)[C@H]3CCCC[C@@H]3NC(=O)C[C@H](CC(=O)O)NC(=O)[C@H]3CCCC[C@@H]3NC(=O)[C@H]3CCCC[C@@H]3NC(=O)C[C@H](CCCNC(=N)N)NC(=O)[C@H]3CCCC[C@@H]3N)C(N)=O)C2=O)CCC(=O)NCCNC(=O)CCN2C(=O)CC(SC[C@H](NC(=O)CNC(=O)CNC(=O)[C@H]3CCCC[C@@H]3NC(=O)C[C@H](CC(=O)O)NC(=O)[C@H]3CCCC[C@@H]3NC(=O)[C@H]3CCCC[C@@H]3NC(=O)C[C@H](CCCNC(=N)N)NC(=O)[C@H]3CCCC[C@@H]3N)C(N)=O)C2=O)CCN(CCC(=O)NCCN(CCC(=O)NCCNC(=O)CCN2C(=O)CC(SC[C@H](NC(=O)CNC(=O)CNC(=O)[C@H]3CCCC[C@@H]3NC(=O)C[C@H](CC(=O)O)NC(=O)[C@H]3CCCC[C@@H]3NC(=O)[C@H]3CCCC[C@@H]3NC(=O)C[C@H](CCCNC(=N)N)NC(=O)[C@H]3CCCC[C@@H]3N)C(N)=O)C2=O)CCC(=O)NCCNC(=O)CCN2C(=O)CC(SC[C@H](NC(=O)CNC(=O)CNC(=O)[C@H]3CCCC[C@@H]3NC(=O)C[C@H](CC(=O)O)NC(=O)[C@H]3CCCC[C@@H]3NC(=O)[C@H]3CCCC[C@@H]3NC(=O)C[C@H](CCCNC(=N)N)NC(=O)[C@H]3CCCC[C@@H]3N)C(N)=O)C2=O)CCC(=O)NCCN(CCC(=O)NCCNC(=O)CCN2C(=O)CC(SC[C@H](NC(=O)CNC(=O)CNC(=O)[C@H]3CCCC[C@@H]3NC(=O)C[C@H](CC(=O)O)NC(=O)[C@H]3CCCC[C@@H]3NC(=O)[C@H]3CCCC[C@@H]3NC(=O)C[C@H](CCCNC(=N)N)NC(=O)[C@H]3CCCC[C@@H]3N)C(N)=O)C2=O)CCC(=O)NCCNC(=O)CCN2C(=O)CC(SC[C@H](NC(=O)CNC(=O)CNC(=O)[C@H]3CCCC[C@@H]3NC(=O)C[C@H](CC(=O)O)NC(=O)[C@H]3CCCC[C@@H]3NC(=O)[C@H]3CCCC[C@@H]3NC(=O)C[C@H](CCCNC(=N)N)NC(=O)[C@H]3CCCC[C@@H]3N)C(N)=O)C2=O)CCC(=O)NCCNC(=O)CCN2C(=O)CC(SC[C@H](NC(=O)CNC(=O)CNC(=O)[C@H]3CCCC[C@@H]3NC(=O)C[C@H](CC(=O)O)NC(=O)[C@H]3CCCC[C@@H]3NC(=O)[C@H]3CCCC[C@@H]3NC(=O)C[C@H](CCCNC(=N)N)NC(=O)[C@H]3CCCC[C@@H]3N)C(N)=O)C2=O)C1=O)C(N)=O)NC(=O)[C@H]1CCCC[C@@H]1N (stereo partly shown) [Compound 6]	69 ± 12	193 ± 30.5	–
N=C(N)NCCC[C@@H](CC(=O)N[C@H]1CCCC[C@@H]1C(=O)N[C@H]1CCCC[C@@H]1C(=O)N[C@@H](CC(=O)O)CC(=O)N[C@H]1CCCC[C@@H]1C(=O)NCC(=O)NCC(=O)N[C@@H](CSC1CC(=O)N(CCC(=O)NCCCC[C@H](NC(=O)CCN2C(=O)CC(SC[C@H](NC(=O)CNC(=O)CNC(=O)[C@H]3CCCC[C@@H]3NC(=O)C[C@H](CC(=O)O)NC(=O)[C@H]3CCCC[C@@H]3NC(=O)[C@H]3CCCC[C@@H]3NC(=O)C[C@H](CCCNC(=N)N)NC(=O)[C@H]3CCCC[C@@H]3N)C(N)=O)C2=O)C(=O)NCCCC[C@H](NC(=O)[C@H](CCCCNC(=O)CCN2C(=O)CC(SC[C@H](NC(=O)CNC(=O)CNC(=O)[C@H]3CCCC[C@@H]3NC(=O)C[C@H](CC(=O)O)NC(=O)[C@H]3CCCC[C@@H]3NC(=O)[C@H]3CCCC[C@@H]3NC(=O)C[C@H](CCCNC(=N)N)NC(=O)[C@H]3CCCC[C@@H]3N)C(N)=O)C2=O)NC(=O)CCN2C(=O)CC(SC[C@H](NC(=O)CNC(=O)CNC(=O)[C@H]3CCCC[C@@H]3NC(=O)C[C@H](CC(=O)O)NC(=O)[C@H]3CCCC[C@@H]3NC(=O)[C@H]3CCCC[C@@H]3NC(=O)C[C@H](CCCNC(=N)N)NC(=O)[C@H]3CCCC[C@@H]3N)C(N)=O)C2=O)C(=O)NCC(N)=O)C1=O)C(N)=O)NC(=O)[C@H]1CCCC[C@@H]1N (stereo partly shown) [Compound 7]	16.2 ± 8.9	128 ± 56.7	–
